Assay results from publication PMC10622746, “Coadministration of ivermectin and abamectin affects milk pharmacokinetics of the antiparasitic clorsulon in Assaf sheep” (Frontiers in Veterinary Science, 2023).
Where two headings read alike, the source gives them in different places. One block for each molecule: values may come before it.

How the values were obtained:
[1] = tested on: ovine ABCG2
Method: (§5) This study employed Madin-Darby Canine Kidney (MDCKII) cells that had been previously transduced with ovine ABCG2. […] Briefly, cells were grown in DMEM (Dulbecco’s modified Eagle’s medium) enriched with glutamax (Life Technologies, Inc., Rockville, MD, United States) and supplemented with penicillin (50 units/mL), streptomycin (50 μg/mL), and 10% (v/v) fetal calf serum (MP Biomedicals, Solon, OH, United States) at a temperature of 37°C and 5% of CO2. Every 3 to 4 days, cells were trypsinized for subculturing.
(§6) Transcellular transport experiments using ovine ABCG2-transduced cells were conducted following the method previously described ([33]). Cells were seeded onto microporous polycarbonate membrane filters (3.0 μm pore size, 24 mm diameter; Transwell 3414; Costar, Corning, NY) at a density of 1.0 × 10^6 per well. The tightness of the monolayer was assessed by measuring its transcellular resistance using Millicell ERS (Millipore Burlington, MA).
(§7) Two hours before the beginning, preincubation was carried out replacing medium in both compartments with 2 mL of transport medium [Hanks’ balanced salt solution supplemented with HEPES (25 mM)] with or without the macrocyclic lactones (10 μM ivermectin and 2.5 μM abamectin). The experiment began with the replacement of the medium in either the apical or basal compartment with transport medium containing clorsulon (10 μM), with or without the same concentration of macrocyclic lactones. Aliquots of 100 μL at 1, 2 and 3 h in the opposite compartment were taken, this volume being replaced with fresh medium. At 4 h, 600 μL aliquots were taken in both compartments. Until analysis by high-performance liquid chromatography (HPLC), samples were stored at −20°C. After concluding the experiment, the confluence of the monolayer was evaluated by means of the Lucifer Yellow permeability assay ([34]). Transport proficiency of these cells was consistently verified through the evaluation of a typical ABCG2 substrate, danofloxacin ([25]).
(§8) The apparent permeability coefficients (Papp) across MDCKII parent and MDCKII oABCG2 cells monolayers in both apical to basal (A-B) (Papp A-B) and basal to apical (B-A) (Papp B-A) directions were calculated using following equation: Papp = (ΔQ/Δt)*(1/A*Co), where ΔQ/Δt is the rate of corresponding clorsulon appearing in the receiver chamber, which was obtained as the slope of the regression line on the transport time profile of clorsulon across the cell monolayers (from 0 to 4 h); Co is the initial concentration of drug; A is the cell monolayer surface area (4.67 cm^2). The efflux ratio is the Papp B-A/Papp A-B quotient.

[2] = tested on: human ABCG2; parameters: method as in PMID 37078871; conditions: human ABCG2 transduced cell line; cited from earlier work
[3] = Milk pharmacokinetics of clorsulon in lactating Assaf sheep; type: in vivo; conditions: clorsulon 2 mg/kg s.c., alone or with ivermectin or abamectin 0.2 mg/kg s.c., mean ± SD, n = 6
Method: (§1) Studies with sheep were carried out on the Experimental Farm of the University of León, following institutional guidelines in accordance with European legislation (2010/63/EU). Procedures were also approved by the Animal Care and Use Committee of the University of León ULE-008-2019 (25/09/2019). Eighteen lactating sheep (3–4 months in lactation) of between 77–83 kg were used. Animals were previously dewormed and they had ad libitum access to drinking water. Sheep were randomly distributed in three experimental groups. All received a subcutaneous (s.c.) injection of clorsulon at 2 mg/kg (dissolved in DMSO, 80 mg/mL); one group coadministrated with another s.c. injection of ivermectin at 0.2 mg/kg (Ivomec® 1%, Merial, France) and another group with another s.c. injection of abamectin at 0.2 mg/kg (dissolved in DMSO, 8 mg/mL). Blood samples were taken from the jugular vein, while milk samples were obtained after completing milking of the gland before each treatment and at intervals of 1, 2, 4, 6, 8, 10, 12, 24, 30, 48, 72, 96, 120 and 168 h thereafter. Plasma was separated by centrifuging at 1200 g 15 min. Samples were stored at −20°C until analyzed.
(§2) Samples were analyzed by HPLC under conditions which have been previously described ([31]). Briefly, the chromatographic system used included a Waters 2695 separation module and a Waters 2998 UV photodiode array detector. Separation was performed on a reversed-phase column ([…], […], Torrance, CA, United States). The mobile phase consisted of potassium phosphate 0.01 M (pH 7): acetonitrile (75:25). The flow rate was set at 1.20 mL/min, with UV absorbance measured at 225 nm, and the column temperature maintained at 35°C.
(§3) In vitro samples were injected directly into the HPLC system. In vivo samples, milk and plasma, were extracted following a formerly described method ([31]) with minor modifications. For milk and plasma samples, 10 μL of albendazole-2-aminosulfone (6.25 μg/mL) as internal standard and 200 μL of ethyl acetate were added to each 100 μL. Then, the mixture was vortexed horizontally for 1 min and centrifuged at 8000 g for 10 min at 4°C. The resulting supernatant was collected and subjected to evaporation under N2 at 30°C until dryness. To the evaporated samples, 500 μL of hexane and 300 μL of acetonitrile was added, the mixture was again vortexed horizontally for 1 min and centrifuged at 3000 g for 10 min at 4°C. Hexane was removed and the rest was evaporated to dryness under nitrogen stream. After being resuspended in 100 μL of cold methanol, samples were injected into the HPLC system.
(§4) Plasma and milk concentrations for each animal were analyzed using PK solution 2.0 computer program (Summit Research Services, Ashland, OH) to calculated pharmacokinetic parameters as previously described ([27]).

[4] = Plasma pharmacokinetics of clorsulon in lactating Assaf sheep; type: in vivo; conditions: female
Method: as §1, §2, §3, §4

[5] = Transepithelial transport of clorsulon across MDCKII parental cell monolayers; type: in vitro ADME, Canine; conditions: dog, MDCK, MDCKII parental cells, clorsulon 10 μM, with or without ivermectin 10 μM, abamectin 2.5 μM, Ko143 1 μM, mean ± SD
[6] = tested on: ovine ABCG2; assay: in vitro; conditions: sheep
Method: as §5, §6, §7, §8

[7] = parameters: method as in earlier work; conditions: cattle, s.c. 2 mg/kg clorsulon; cited from earlier work
[8] = tested on: murine ABCG2; parameters: method as in PMID 37078871; conditions: murine ABCG2 transduced cell line; cited from earlier work
[9] = tested on: ovine ABCG2; conditions: at 25 μM in ovine ABCG2-transduced cells; cited from earlier work
[10] = MDCKII oABCG2 cells, ivermectin 10 μM, abamectin […], Ko143 1 μM
[11] = sc, clorsulon 2 mg/kg s.c., alone or with ivermectin or abamectin 0.2 mg/kg s.c., mean ± SD, n = 6

Molecule: Abamectin
Inhibition of clorsulon (10 μM) transport mediated by ovine ABCG2 (in words) [1, 10]: effectively inhibited

Kp ([3]; female, Assaf, milk/plasma, subcutaneous, sheep, read-out: AUC milk/AUC plasma): 0.49 ± 0.14 | AUC(0-inf) ([3]; female, Assaf, sc, sheep milk): 20700 ± 4970 ng·h/mL | Cmax ([3]; female, Assaf, sc, sheep milk): 650 ± 290 ng/mL | MRT ([3]; female, Assaf, sc, sheep milk): 40.8 ± 6.15 h | Tmax ([3]; female, Assaf, sc, sheep milk): 10 ± 1.26 h | half-life ([3]; female, Assaf, sc, sheep milk, read-out: T1/2 of clorsulon in milk (converted)): 25.9 ± 3.72 h | Dose excreted (%) in milk (72 h) ([3]; sheep milk, 72 h): 0.86 ± 0.28% | AUC(0-inf) [4, 11]: 43300 ± 6400 ng·h/mL | Cmax [4, 11]: 2130 ± 280 ng/mL | MRT [4, 11]: 25 ± 3.97 h | Tmax [4, 11]: 6.67 ± 1.93 h | half-life ([4]; sc, clorsulon 2 mg/kg s.c., alone or with ivermectin or abamectin 0.2 mg/kg s.c., mean ± SD, n = 6, read-out: T1/2 of clorsulon in plasma (converted)): 19 ± 2.38 h | concentration at 8 h ([4]; subcutaneous, 8 h after clorsulon 2 mg/kg s.c., alone or with ivermectin 0.2 mg/kg s.c.): 1950 ± 240 ng/mL | Papp A→B at 4 h, 10 μM ([5]; n ≥ 3, read-out: AP-BL (Papp A-B)): 2.27 ± 0.46 ×10⁻⁶ cm/s | Papp B→A at 4 h, 10 μM ([5]; n ≥ 3, read-out: BL-AP (Papp B-A)): 2.41 ± 0.46 ×10⁻⁶ cm/s | efflux ratio at 4 h, 10 μM ([5]; read-out: Efflux ratio Papp B-A/Papp A-B): 1.07 ± 0.06 | Papp A→B at 4 h, 10 μM [6]: 1.13 ± 0.16 ×10⁻⁶ cm/s | Papp B→A at 4 h, 10 μM [6]: 3.23 ± 0.88 ×10⁻⁶ cm/s | efflux ratio at 4 h, 10 μM [6]: 2.92 ± 0.93 | Transport by ovine ABCG2 (substrate, in words) ([1]; MDCKII oABCG2 cells, clorsulon 10 μM): efficiently transported
Molecule: Nc1cc(C(Cl)=C(Cl)Cl)c(S(N)(=O)=O)cc1S(N)(=O)=O [Clorsulon]
Efflux transport ratio [2]: 1.63 ± 0.17 | Maximum plasma concentration [7]: 2.5 µg/mL | Time of maximum plasma concentration [7]: 6 h | Efflux transport ratio [8]: 2.20 ± 0.13

Molecule: Ivermectin
Inhibition of clorsulon (10 μM) transport mediated by ovine ABCG2 (in words) [1]: effectively inhibited | Inhibition potency value [9]: 45.9%

Molecule: COc1ccc2c3c([nH]c2c1)[C@H](CC(C)C)N1C(=O)[C@H](CCC(=O)OC(C)(C)C)NC(=O)[C@@H]1C3 [Ko143]
Inhibition of clorsulon (10 μM) transport mediated by ovine ABCG2 (in words) [1, 10]: complete inhibition
